Assay results reported in publication PMC9856044 (Biomolecules, 2023).

Key:
Tel22 G-quadruplex = experiment: Thermal melting of Tel22 in sodium cacodylate buffer; format: binding, human; conditions: Tel22, r = 1.0, sodium cacodylate buffer, pH = 7.0, I = 0.1 mol dm^−3; error ± 0.5 °C
Procedure: (§1) Thermal melting curves for DNA, RNA and their complexes with studied compounds were determined as previously described by following the absorption change at 260 nm as a function of temperature. The absorbance of the ligands was subtracted from every curve and the absorbance scale was normalized. Tm values are the midpoints of the transition curves determined from the maximum of the first derivative and checked graphically by the tangent method. The ∆Tm values were calculated by subtracting Tm of the free nucleic acid from Tm of the complex. Every ∆Tm value here reported was the average of two measurements. The error in ∆Tm is ±0.5 °C. 5′-AGGG(TTAGGG)3–3′(Tel22) was obtained from IDT (Integrated DNA Technologies, Coralville, IA, USA). Tel22 was dissolved in 0.1 M either in sodium cacodylate or potassium phosphate buffer. The starting Tel22 oligonucleotide solution was first heated up to 95 °C for 10 min, then slowly cooled to 10 °C at the cooling rate of 1 °C/min to allow DNA oligonucleotide to adopt a G-quadruplex structure. The G-quadruplex structure was confirmed by thermal melting and CD spectra. The concentration of G quadruplex was expressed in terms of oligonucleotide structure. In fluorimetric titrations, aliquots of Tel 22 solution were added to the solution of ligands (c ~ 2 × 10^−7 M, in SI).

poly(dGdC)2 (GC-DNA) = experiment: Fluorimetric titration with GC-DNA; format: binding; conditions: for log Ka / Ka (order of magnitude): GC-DNA; for Ka (order of magnitude): sodium cacodylate buffer, pH 7.0, I = 0.05 mol dm^−3, Scatchard equation; for K (fit parameter of titration curve): poly(dGdC)2, pH=7.0, sodium cacodylate buffer, I = 0.05 mol dm-3
Procedure: Materials. Polynucleotides were purchased as noted: poly A–poly U, calf thymus ctDNA, poly(dAdT)2 and poly(dGdC)2 (Sigma-Aldrich, St. Louis, MI, USA). Polynucleotides were dissolved in Na-cacodylate buffer, I = 0.05 mol dm^−3, pH = 7.0. The calf thymus ctDNA was additionally sonicated and filtered through a […]. Polynucleotide concentration was determined spectroscopically as the concentration of phosphates. Spectrophotometric titrations were performed at pH = 7.0 (I = 0.05 mol dm^−3, sodium cacodylate buffer) by adding aliquots of polynucleotide solution into the solution of the studied compound for fluorimetric experiments and CD experiments were done by adding aliquots of the compound stock solution into the solution of a polynucleotide. In fluorimetric experiments, an excitation wavelength of λexc = 425, 431, 423, 427, 406 and 407 nm, respectively, was used to avoid the inner filter effect caused due to increasing absorbance of the polynucleotide. Emission was collected in the range λem = 400–700 nm. Values for Ka obtained by processing titration data using the Scatchard equation [27], all have satisfactory correlation coefficients (≥0.98). Furthermore, linear changes were evident with increasing DNA or RNA concentration in most titrations. The exceptions to this were titrations of cyanine 3 with GC-DNA and titrations of dye 5 with ds-DNA and ds-RNA where sufficient data points in the non-linear part of the curve allowed estimation of binding affinity (Ka values were of the order 10^5 mol^−1 dm^−3; Figures S16, S22 and S23 in SI). Titration data were collected at a high excess of polynucleotide binding sites (r[1–6]/[nucleotide phosphate] < 0.1; see Figures S9–S26 in SI) where each molecule can bind to a separate binding site. Binding affinities of dye-DNA/RNA complexes were calculated by non-linear fitting using the Scatchard equation [27, 33]. The fluorescence changes of dye 5 in the titration with AT-DNA were too small to obtain an accurate binding constant (Figure S21 in SI).

Fibroblasts = experiment: MTT cytotoxicity assay, normal human skin fibroblasts; format: cell-based; conditions: Fibroblast, 72 h incubation, ± SD
Procedure: (§2) Human cervical carcinoma HeLa (GIBCO BRL, Invitrogen, Waltham, MA, USA), human melanoma MDA-MB-435S and human ovarian adenocarcinoma SK-OV-3 (ATCC-LGC Standards GmbH, Wesel, Germany) cell lines were purchased from indicated cell culture banks. Normal human skin fibroblasts were isolated from the upper arm of a donor at the Neurochemical Laboratory, Department of Chemistry and Biochemistry, School of Medicine, University of Zagreb. HeLa, MDA-MB-435S and fibroblasts were grown in Dulbecco’s Modified Eagle’s Medium (DMEM; Sigma-Aldrich, St. Louis, MI, USA) while the SK-OV-3 cell line was grown in McCoy’s 5A medium (Capricorn Scientific, Ebsdorfergrund, Germany). All media were supplemented with 10% fetal bovine serum (FBS; Sigma-Aldrich) and 50 I.U./mL penicillin and 50 μg/mL streptomycin. Cells were cultured in a humidified atmosphere of 5% CO2 at 37 °C and were sub-cultured every 3–4 days. HeLa, MDA-MB-435S, SK-OV-3 cells and fibroblasts were seeded in 96 well plates. Twenty-four hours later the cells were treated, in quadruplicate, with different concentrations of compounds (dissolved in DMSO, kept at 4 °C and protected from light). Following 72 h of incubation at 37 °C, the medium was aspired and modified 3-(4,5-dimethylthiazol-2-yl)-2,5-diphenyltetrazolium bromide (MTT) assay was used to determine the cytotoxic effect of the tested compounds. Three hours later, formazan crystals were dissolved in DMSO (0.17 mL/well), the plates were mechanically agitated for 20 min and the optical density at 600 nm was determined on a microtiter plate reader (Awareness Technology Inc., Palm City, FL, USA). The experiments were repeated three times.

MDA-MB-435S cells = experiment: MTT cytotoxicity assay, MDA-MB-435S; format: cell-based; conditions: Homo sapiens, 72 h incubation, ± SD
Procedure: as §2

[1] = target: Tel22 (5′-AGGG(TTAGGG)3–3′) G-quadruplex; experiment: Fluorimetric titration with Tel22 in sodium cacodylate buffer (Na+ solution); format: binding, human
Procedure: Materials. Polynucleotides were purchased as noted: poly A–poly U, calf thymus ctDNA, poly(dAdT)2 and poly(dGdC)2 (Sigma-Aldrich, St. Louis, MI, USA). Polynucleotides were dissolved in Na-cacodylate buffer, I = 0.05 mol dm^−3, pH = 7.0. The calf thymus ctDNA was additionally sonicated and filtered through a […]. Polynucleotide concentration was determined spectroscopically as the concentration of phosphates. Spectrophotometric titrations were performed at pH = 7.0 (I = 0.05 mol dm^−3, sodium cacodylate buffer) by adding aliquots of polynucleotide solution into the solution of the studied compound for fluorimetric experiments and CD experiments were done by adding aliquots of the compound stock solution into the solution of a polynucleotide. In fluorimetric experiments, an excitation wavelength of λexc = 425, 431, 423, 427, 406 and 407 nm, respectively, was used to avoid the inner filter effect caused due to increasing absorbance of the polynucleotide. Emission was collected in the range λem = 400–700 nm. Values for Ka obtained by processing titration data using the Scatchard equation [27], all have satisfactory correlation coefficients (≥0.98).
as §1
Binding constants (log Ka) and stoichiometry of complexes were calculated from the fluorimetric data using non-linear least-square program SPECFIT [46], in the concentration range that corresponded to 20–80% complex formed.

[2] = Tel22, sodium cacodylate buffer, pH = 7.0, I = 0.1 mol dm^−3, SPECFIT fit of fluorescence titration

SMILES	∆Tm (Tel22 G-quadruplex) [°C]	log Ka (poly(dGdC)2 (GC-DNA))	Ka (order of magnitude) (poly(dGdC)2 (GC-DNA))	K (fit parameter of titration curve) (poly(dGdC)2 (GC-DNA))	IC50 (Fibroblasts) [nM]	IC50 (MDA-MB-435S cells) [nM]	logKa1 (L + G ⇆ LG) [1, 2]	logKa2 (LG + G ⇆ LG2) [1, 2]	Selectivity for G-quadruplex over duplex DNA ([1]; binding affinities Tel22 vs duplex DNA, in both the Na+ and K+ solutions) [fold]
CN1/C(=C/c2[se]c3ccccc3[n+]2C)Sc2ccccc21 [Compound 3, 3-methyl-2-((3-methylbenzo[d]thiazol-2(3H)-ylidene)methyl)benzo[d][1,3]selenazol-3-ium methosulphate]	0.5	5	~10^5 mol^−1 dm^−3	183746.7242 ±8918685.57223	2380 ± 161	987 ± 177	7.26 ± 0.41	5.93 ± 0.47	100
C[n+]1c(/C=C2\Sc3ccccc3N2CCCS)[se]c2ccccc21 [Compound 5, 2-((3-(3-mercaptopropyl)benzo[d]thiazol-2(3H)-ylidene)methyl)-3-methylbenzo[d][1,3]selenazol-3-ium methosulphate]	2.1	5	~10^5 mol^−1 dm^−3	282880.22043 ±15074133.56759	> 40000	37100 ± 3020	–	–	–
